Assays:
SR [1] = experiment: Cytotoxicity against human SR cells assessed as growth level at 10 uM after 48 hrs by SRB assay; type: functional
[2] = Cytotoxicity against human HOP92 cells assessed as growth level at 10 uM after 48 hrs by SRB assay; type: functional, HOP-92
NCI-H322M = experiment: Cytotoxicity against human NCI-H322M cells assessed as growth level at 10 uM after 48 hrs by SRB assay; type: functional
NCI-H522 = experiment: Cytotoxicity against human NCI-H522 cells assessed as growth level at 10 uM after 48 hrs by SRB assay; type: functional
[3] = Cytotoxicity against human HCT15 cells assessed as growth level at 10 uM after 48 hrs by SRB assay; type: functional, HCT-15
[4] = Cytotoxicity against human SF268 cells assessed as growth level at 10 uM after 48 hrs by SRB assay; type: functional, SF-268
[5] = Cytotoxicity against human SF539 cells assessed as growth level at 10 uM after 48 hrs by SRB assay; type: functional, SF-539
M14 [6] = experiment: Cytotoxicity against human M14 cells assessed as growth level at 10 uM after 48 hrs by SRB assay; type: functional
MDA-MB-435 [7] = experiment: Cytotoxicity against human MDA-MB-435 cells assessed as growth level at 10 uM after 48 hrs by SRB assay; type: functional
[8] = Cytotoxicity against human UACC62 cells assessed as growth level at 10 uM after 48 hrs by SRB assay; type: functional, UACC-62
[9] = Cytotoxicity against human OVCAR4 cells assessed as growth level at 10 uM after 48 hrs by SRB assay; type: functional, OVCAR-4
[10] = Cytotoxicity against human Caki1 cells assessed as growth level at 10 uM after 48 hrs by SRB assay; type: functional, CAKI-1
[11] = Cytotoxicity against human DU145 cells assessed as growth level at 10 uM after 48 hrs by SRB assay; type: functional, DU-145
[12] = Cytotoxicity against human BT549 cells assessed as growth level at 10 uM after 48 hrs by SRB assay; type: functional, BT-549
MDA-MB-468 [13] = experiment: Cytotoxicity against human MDA-MB-468 cells assessed as growth level at 10 uM after 48 hrs by SRB assay; type: functional
K562 = experiment: Cytotoxicity against human K562 cells assessed as growth inhibition at 10 uM after 48 hrs by SRB assay; type: functional; settings: K562, 48 h, read-out: GI
[14] = Cytotoxicity against human RPMI8226 cells assessed as growth inhibition at 10 uM after 48 hrs by SRB assay; type: functional; settings: RPMI-8226, 48 h, read-out: GI
NCI-H23 = experiment: Cytotoxicity against human NCI-H23 cells assessed as growth inhibition at 10 uM after 48 hrs by SRB assay; type: functional; settings: NCI-H23, 48 h, read-out: GI
[15] = Cytotoxicity against human HCC2998 cells assessed as growth inhibition at 10 uM after 48 hrs by SRB assay; type: functional; settings: HCC 2998, 48 h, read-out: GI
[16] = Cytotoxicity against human SF295 cells assessed as growth inhibition at 10 uM after 48 hrs by SRB assay; type: functional; settings: SF-295, 48 h, read-out: GI
MDA-MB-435 [17] = experiment: Cytotoxicity against human MDA-MB-435 cells assessed as growth inhibition at 10 uM after 48 hrs by SRB assay; type: functional; settings: MDA-MB-435, 48 h, read-out: GI
SK-MEL-28 = experiment: Cytotoxicity against human SK-MEL-28 cells assessed as growth inhibition at 10 uM after 48 hrs by SRB assay; type: functional; settings: SK-MEL-28, 48 h, read-out: GI
[18] = Cytotoxicity against human UACC257 cells assessed as growth inhibition at 10 uM after 48 hrs by SRB assay; type: functional; settings: UACC-257, 48 h, read-out: GI
[19] = Cytotoxicity against human OVCAR3 cells assessed as growth inhibition at 10 uM after 48 hrs by SRB assay; type: functional; settings: OVCAR-3, 48 h, read-out: GI
SN12C = experiment: Cytotoxicity against human SN12C cells assessed as growth inhibition at 10 uM after 48 hrs by SRB assay; type: functional; settings: read-out: GI
[20] = Cytotoxicity against human DU145 cells assessed as growth inhibition at 10 uM after 48 hrs by SRB assay; type: functional; settings: DU-145, 48 h, read-out: GI
T47D = experiment: Cytotoxicity against human T47D cells assessed as growth inhibition at 10 uM after 48 hrs by SRB assay; type: functional; settings: read-out: GI
MDA-MB-468 [21] = experiment: Cytotoxicity against human MDA-MB-468 cells assessed as growth inhibition at 10 uM after 48 hrs by SRB assay; type: functional; settings: MDA-MB-468, 48 h, read-out: GI
CCRF-CEM = experiment: Cytotoxicity against human CCRF-CEM cells after 48 hrs by SRB assay; type: functional
[22] = Cytotoxicity against human RPMI8226 cells after 48 hrs by SRB assay; type: functional; settings: RPMI-8226, 48 h
SR [23] = experiment: Cytotoxicity against human SR cells after 48 hrs by SRB assay; type: functional
A549 = experiment: Cytotoxicity against human A549 cells after 48 hrs by SRB assay; type: functional; settings: A549, 48 h
[24] = Cytotoxicity against human HCT15 cells after 48 hrs by SRB assay; type: functional; settings: HCT-15, 48 h
HT-29 = experiment: Cytotoxicity against human HT-29 cells after 48 hrs by SRB assay; type: functional; settings: HT-29, 48 h
KM12 = experiment: Cytotoxicity against human KM12 cells after 48 hrs by SRB assay; type: functional; settings: KM12, 48 h
M14 [25] = experiment: Cytotoxicity against human M14 cells after 48 hrs by SRB assay; type: functional; settings: M14, 48 h
[26] = Cytotoxicity against human NCI-ADR-RES cells after 48 hrs by SRB assay; type: functional
[27] = Cytotoxicity against human SKOV3 cells after 48 hrs by SRB assay; type: functional; settings: SK-OV-3, 48 h
ACHN = experiment: Cytotoxicity against human ACHN cells after 48 hrs by SRB assay; type: functional
[28] = Cytotoxicity against human Caki1 cells after 48 hrs by SRB assay; type: functional; settings: CAKI-1, 48 h
[29] = Cytotoxicity against human BT549 cells after 48 hrs by SRB assay; type: functional; settings: BT-549, 48 h
[30] = Cytotoxicity against human HL-60(TB) cells assessed as growth level at 10 uM after 48 hrs by SRB assay; type: functional
[31] = read-out: LC50 (the source's name)

## C=C1CC[C@@H]2[C@](C)(COC(C)=O)[C@H](OC(C)=O)CC[C@@]2(C)[C@@H]1C/C=C1/C(=O)OC[C@H]1OC(C)=O
SR [1]
  Activity: 5.73%
[2]
  Activity: 71.9%
NCI-H322M
  Activity: 101.35%
NCI-H522
  Activity: -41.64%
[3]
  Activity: -23.04%
[4]
  Activity: 87.06%
[5]
  Activity: 8.54%
M14 [6]
  Activity: 35.37%
MDA-MB-435 [7]
  Activity: 33.07%
[8]
  Activity: 29.71%
[9]
  Activity: 66.49%
[10]
  Activity: 81.51%
[11]
  Activity: 50.88%
[12]
  Activity: 27.38%
MDA-MB-468 [13]
  Activity: 7.98%
K562
  inhibition of growth at 10 µM: 88.9%
[14]
  inhibition of growth at 10 µM: 85.9%
NCI-H23
  inhibition of growth at 10 µM: 19.1%
[15]
  inhibition of growth at 10 µM: 32.7%
[16]
  inhibition of growth at 10 µM: 4.98%
MDA-MB-435 [17]
  inhibition of growth at 10 µM: 66.9%
SK-MEL-28
  inhibition of growth at 10 µM: 62.2%
[18]
  inhibition of growth at 10 µM: 33.5%
[19]
  inhibition of growth at 10 µM: 21.3%
SN12C
  inhibition of growth at 10 µM: 66.6%
[20]
  inhibition of growth at 10 µM: 49.1%
T47D
  inhibition of growth at 10 µM: 57.2%
MDA-MB-468 [21]
  inhibition of growth at 10 µM: 92%
CCRF-CEM
  GI50: 1.12 µM
  TGI: 5.32 µM
CCRF-CEM; [31]
  CC50: > 100 µM
[22]
  GI50: 2.07 µM
  LC50: > 100 µM
  TGI: 7.68 µM
SR [23]
  GI50: 2.59 µM
  TGI: 10.1 µM
SR [23]; [31]
  CC50: > 100 µM
A549
  GI50: 11.9 µM
  LC50: 79.3 µM
  TGI: 30.7 µM
[24]
  GI50: 1.58 µM
  LC50: 65.5 µM
  TGI: 4.33 µM
HT-29
  GI50: 2.58 µM
  LC50: > 100 µM
KM12
  GI50: 10.5 µM
  LC50: 73.4 µM
  TGI: 27.7 µM
M14 [25]
  GI50: 2.22 µM
  LC50: 26.5 µM
  TGI: 6.48 µM
[26]
  GI50: 4.22 µM
  LC50: > 100 µM
  TGI: 19.8 µM
[27]
  GI50: 19.1 µM
  TGI: 36.3 µM
[27]; [31]
  CC50: 68.8 µM
ACHN
  GI50: 1.71 µM
  LC50: 6.06 µM
  TGI: 3.22 µM
[28]
  GI50: 6.67 µM
  LC50: 44.3 µM
  TGI: 19.6 µM
[29]
  GI50: 2.29 µM
  TGI: 5.63 µM
[29]; [31]
  CC50: 18.8 µM
[30]
  Activity: 79.11%

## C=C1CC[C@@H]2[C@](C)(COC(C)=O)[C@H](OC(C)=O)CC[C@@]2(C)[C@@H]1CC(NCc1cccc(Cl)c1)C1=CCOC1=O (mixture of isomers)
SR [1]
  Activity: 11.54%
[2]
  Activity: 66.34%
NCI-H322M
  Activity: 75.37%
NCI-H522
  Activity: 52.45%
[3]
  Activity: 37.72%
[4]
  Activity: 53.28%
[5]
  Activity: 74.12%
M14 [6]
  Activity: 55.02%
MDA-MB-435 [7]
  Activity: 51.65%
[8]
  Activity: 41.2%
[9]
  Activity: 50.4%
[10]
  Activity: 48.33%
[11]
  Activity: 81.85%
[12]
  Activity: 49.66%
MDA-MB-468 [13]
  Activity: 25.62%
K562
  inhibition of growth at 10 µM: 81.5%
[14]
  inhibition of growth at 10 µM: 72.8%
NCI-H23
  inhibition of growth at 10 µM: 47.3%
[15]
  inhibition of growth at 10 µM: 15.4%
[16]
  inhibition of growth at 10 µM: 14.1%
MDA-MB-435 [17]
  inhibition of growth at 10 µM: 48.4%
SK-MEL-28
  inhibition of growth at 10 µM: 23.4%
[18]
  inhibition of growth at 10 µM: 74.8%
[19]
  inhibition of growth at 10 µM: 52.6%
SN12C
  inhibition of growth at 10 µM: 37.9%
[20]
  inhibition of growth at 10 µM: 18.1%
T47D
  inhibition of growth at 10 µM: 49.3%
MDA-MB-468 [21]
  inhibition of growth at 10 µM: 74.4%
[30]
  Activity: 21.57%

Reference: ChEMBL document CHEMBL3734705, “Synthesis and in vitro cytotoxicity of novel C-12 substituted-14-deoxy-andrographolide derivatives as potent anti-cancer agents” (2015)
